pIC50: −log10 of the molar value. Structures can show the parent of a compound that is named as a salt. Where two headings read alike, the source gives them in different places.
Legend:
S.aureus (Sa) = experiment: Broth microdilution MIC against S.aureus (Sa); assay type: cell-based; settings: for MIC: Staphylococcus aureus
Method: (§1) A certified BSL-2 laboratory was used for testing. Compounds were evaluated using the broth microdilution minimum inhibitory concentration (MIC) and minimum bactericidal concentration (MBC) assays defined by Clinical and Laboratory Standards Institute (CLSI) in the M26-A guideline against S.aureus (Sa), E.coli (Ec), K.pneumoniae (Kp), A.baumannii (Ab), E.faecalis (Ef) and P.aeruginosa (Pa).
(§2) MICs were determined using the Clinical Laboratory and Standards Institute (CLSI) Broth Microdilution Method with slight modification. Clinical and Laboratory Standards Institute (2012). “Methods for dilution antimicrobial susceptibility tests for bacteria that grow aerobically; approved standard, 9th ed. M07-A9. Clinical and Laboratory Standards Institute, Wayne, PA.” Serial two-fold dilutions of compounds are prepared in sterile clear roundbottom 96-well plates.
(§3) To prepare microdilution trays, two-fold dilutions of antimicrobial agent are prepared in growth medium: Cation-Adjusted Mueller-Hinton Broth (CAMHB), or CAMHB supplemented with sodium bicarbonate (6.25 or 25 mM final concentration prepared from a 1.0 M stock solution) or CAMHB supplemented with heat inactivated human serum (Fisher Cat. # BP2657100) 0-50% by adding 200 µL of the highest concentration to be tested (64 µg/mL, for example) in row A, mixing and transferring 100 µL from row A to 100 µL growth medium in row B, then repeating the mixing and transferring through row H of the 96-well plate, discarding the excess 100 µL remaining. This slight modification to the CLSI protocol enables evaluation of MICs for 3 compounds per plate in triplicate, albeit with only 8 compound dilutions (CLSI protocol enables 2 compounds in triplicate with 10 dilutions). Bacterial suspensions are added to a final concentration of 5 × 10^4 CFU/well by adding 5 µL of a 1:10 dilution of a 0.5 McFarland suspension (1 × 10^8 CFU/mL) for each bacterium evaluated. Bacterial suspensions were prepared using the growth method described by CLSI. Well-isolated colonies (3-5 from an agar plate) were selected using a sterile loop and used to inoculate a tube containing 4 mL of CAMHB. The cultures are incubated at 35 ± 2° C. until it achieves or exceeds the turbidity of the 0.5 McFarland standard, determined by measuring A600nm (usually two to six hours). When growth exceeds a 0.5 McFarland standard, the turbidity is adjusted with broth to be equivalent to a 0.5 McFarland standard.

E.coli (Ec) = experiment: Broth microdilution MIC against E.coli (Ec); assay type: cell-based; settings: for MIC: Escherichia coli
Method: as §1, §2, §3

P.aeruginosa (Pa) = experiment: Broth microdilution MIC against P.aeruginosa (Pa); assay type: cell-based; settings: for MIC: Pseudomonas aeruginosa
Method: as §1, §2, §3

A.baumannii (Ab) = experiment: Broth microdilution MIC against A.baumannii (Ab); assay type: cell-based; settings: for MIC: Acinetobacter baumannii
Method: as §1, §2, §3

E.faecalis (Ef) = experiment: Broth microdilution MIC against E.faecalis (Ef); assay type: cell-based; settings: for MIC: Enterococcus faecalis
Method: as §1, §2, §3

[1] = tested on: E.coli S30 extract (bacterial protein synthesis); experiment: E.coli S30 extract: inhibition of bacterial protein synthesis (luciferase); assay type: biochemical; settings: 37° C. for 1 hour
Method: E.coli S30 extract: Inhibition of bacterial protein synthesis was determined using the E.coli S30 Extract System for Circular DNA (Promega catalog #L-2010) and Luciferase Assay Reagent (Promega catalog #E1500) with slight modifications to a published protocol. Fyfe, C., Sutcliffe, J.A. and Grossman, T.H. (2012) “Development and characterization of a Pseudomonas aeruginosa in vitro coupled transcription-translation assay system for evaluation of translation inhibitors” J. Microbiol. Methods 90(3), 256-261.
Compounds were serial diluted in 0.5 mL microcentrifuge tubes by mixing and transferring 50 µL from the highest concentration to 50 µL of water, mixing and transferring 50 µL of this 2-fold dilution to 50 µL of water. This mixing and transferring was repeated so that there are a total of 8 tubes with serial dilutions of compound at 10× the desired screening concentration that are ultimately diluted to 1× by the addition of S30 luciferase synthesis mixture. Serial dilutions of compounds were added (2 µL) to wells in a black round bottom 96-well plate. Water (2 µL) was used as a “no inhibitor” control in 4 wells/plate. No DNA control reaction mixture (20 µL; see below) was used as a control in 4 wells/plate for background luminescence. S30 luciferase synthesis mixture (18 µL; see below) was added to wells with compounds or water mixture and incubated at 37° C. for 1 hour. Reactions were stopped by transferring to 4° C. refrigerator for 5 minutes then 25 µL of luciferase activity mix was added. Luminescence was measured using a BioTek Synergy HTX plate reader. % Inhibition was determined relative to no inhibitor controls.
S30 luciferase synthesis mixture: • 445 µL S30 extract, circular • 712 µL S30 Premix without amino acids • 4.45 µL pBESTluc™ DNA (1 µg/ µL) • 78 µL complete amino acid mixture • 267 µL water
No DNA control: • 20 µL S30 extract, circular • 32 µL S30 Premix without amino acids • 7 µL complete amino acid mixture • 21 µL water

[2] = biological target: Rabbit Reticulocyte Lysate (eukaryotic protein synthesis); experiment: Rabbit Reticulocyte Lysate: inhibition of eukaryotic protein synthesis (luciferase); assay type: biochemical; settings: 30° C. for 90 minutes, read-out: retic. IC50
Method: Inhibition of eukaryotic protein synthesis was determined using the Rabbit Reticulocyte Lysate System, Nuclease-Treated from Promega (catalog #L-4960) with slight modifications to the manufacturer’s protocol. Compounds were serial diluted in 0.5 mL microcentrifuge tubes by mixing and transferring 50 µL from the highest concentration to 50 µL of water, mixing and transferring 50 µL of this 2-fold dilution to 50 µL of water. This mixing and transferring was repeated so that there are a total of 8 tubes with serial dilutions of compound at 10× the desired screening concentration that are ultimately diluted to 1× by the addition of rabbit reticulocyte luciferase synthesis mixture. Serial dilutions of compounds were added (2.5 µL) to wells in a black round bottom 96-well plate. Water (2.5 µL) was used as a “no inhibitor” control in 4 wells/plate. No RNA control reaction mixture (2 µL; see below) was used as a control in 4 wells/plate for background luminescence. Rabbit reticulocyte luciferase synthesis mixture (22.5 µL; see below) was added to wells with compounds or water mixture and incubated at 30° C. for 90 minutes. Luciferase assay reagent (25 µL) was added with luminescence measured using a BioTek Synergy HTX plate reader. % Inhibition was determined relative to no inhibitor controls.
Rabbit reticulocyte luciferase synthesis mixture: • 1,000 µL rabbit reticulocyte lysate • 5.7 µL Luciferase Control RNA (1 µg/ µL) • 26 µL complete amino acid mixture • 395 µL water
No RNA Control • 70 µL rabbit reticulocyte lysate • 2 µL complete amino acid mixture • 28 µL water

[3] = CAMHB supplemented with sodium bicarbonate 6.25 mM, read-out: Sa + bicarb 6.25 (MIC)
[4] = CAMHB supplemented with sodium bicarbonate 6.25 mM, read-out: E. coli + bicarb 6.25 (MIC)
[5] = CAMHB supplemented with sodium bicarbonate 6.25 mM, read-out: Pa +bicarb 6.25 (MIC)
[6] = CAMHB supplemented with sodium bicarbonate 6.25 mM, read-out: Ab +bicarb 6.25 (MIC)
[7] = CAMHB supplemented with sodium bicarbonate 6.25 mM, read-out: Ef +bicarb 6.25 (MIC)
[8] = CAMHB supplemented with sodium bicarbonate 6.25 mM
[9] = CAMHB supplemented with sodium bicarbonate 6.25 mM, Hydrochloride Salt

CC(C)(N)C(=O)N1CCN(C(=O)Nc2ccn(-c3ccc4c(c3)CCC(N[C@H]3CC[C@H](N)C3)C4)c(=O)n2)CC1 (single isomer, unassigned) [Compound 27, Hydrochloride Salt]
MIC (S.aureus (Sa); [3]): < 8 µg/mL | MIC (E.coli (Ec); [4]): < 8 µg/mL | MIC (P.aeruginosa (Pa); [5]): > 32 µg/mL | MIC (A.baumannii (Ab); [6]): > 32 µg/mL | MIC (E.faecalis (Ef); [7]): < 8 µg/mL | pIC50 [1]: > 6.30 | pIC50 [2]: ≤ 6.00

CC(C)(N)C(=O)N1CCN(C(=O)Nc2ccn(-c3ccc4c(c3)CCC(N[C@H]3CC[C@H](N)C3)C4)c(=O)n2)CC1 (single isomer, unassigned) [Compound 28, Hydrochloride Salt]
Sa + bicarb 6.25 (MIC) (S.aureus (Sa); [8]): +++ (An MIC value (µg/mL) that is less than 8 µg/mL) | E. coli + bicarb 6.25 (MIC) (E.coli (Ec); [8]): +++ (An MIC value (µg/mL) that is less than 8 µg/mL) | Pa +bicarb 6.25 (MIC) (P.aeruginosa (Pa); [8]): + (An MIC value (µg/mL) that is 32 µg/mL or greater) | Ab +bicarb 6.25 (MIC) (A.baumannii (Ab); [8]): + (An MIC value (µg/mL) that is 32 µg/mL or greater) | Ef +bicarb 6.25 (MIC) (E.faecalis (Ef); [9]): ++ (An MIC value (µg/mL) that is 8 µg/mL or greater and less than 32 µg/mL) | pIC50 [1]: > 6.30 | pIC50 [2]: ≤ 6.00

CC(C)(N)C(=O)N1CCN(C(=O)Nc2ccn(-c3ccc4c(c3)CCC(N[C@H]3CC[C@@H](N)C3)C4)c(=O)n2)CC1 (single isomer, unassigned) [Compound 33, Hydrochloride Salt]
MIC (S.aureus (Sa); [3]): 8 to 32 µg/mL | MIC (E.coli (Ec); [4]): < 8 µg/mL | MIC (P.aeruginosa (Pa); [5]): > 32 µg/mL | MIC (A.baumannii (Ab); [6]): > 32 µg/mL | MIC (E.faecalis (Ef); [7]): > 32 µg/mL | pIC50 [1]: > 6.30 | pIC50 [2]: ≤ 6.00

CC(C)(N)C(=O)N1CCN(C(=O)Nc2ccn(-c3ccc4c(c3)CCC(N[C@H]3CC[C@@H](N)C3)C4)c(=O)n2)CC1 (single isomer, unassigned) [Compound 34, Hydrochloride Salt]
Sa + bicarb 6.25 (MIC) (S.aureus (Sa); [9]): +++ (An MIC value (µg/mL) that is less than 8 µg/mL) | E. coli + bicarb 6.25 (MIC) (E.coli (Ec); [8]): +++ (An MIC value (µg/mL) that is less than 8 µg/mL) | Pa +bicarb 6.25 (MIC) (P.aeruginosa (Pa); [8]): + (An MIC value (µg/mL) that is 32 µg/mL or greater) | Ab +bicarb 6.25 (MIC) (A.baumannii (Ab); [8]): + (An MIC value (µg/mL) that is 32 µg/mL or greater) | Ef +bicarb 6.25 (MIC) (E.faecalis (Ef); [8]): + (An MIC value (µg/mL) that is 32 µg/mL or greater) | pIC50 [1]: > 6.30 | pIC50 [2]: ≤ 6.00

CC(C)(N)C(=O)N1CCN(C(=O)Nc2ccn(-c3ccc4c(c3)CCC(N[C@H]3CC[C@H](N)C3)C4)c(=O)n2)CC1 (stereo in doubt) [Compound 10]
MIC (S.aureus (Sa); CAMHB supplemented with sodium bicarbonate 25 mM, read-out: Sa + bicarb 25 (MIC)): < 8 µg/mL | MIC (E.coli (Ec); CAMHB supplemented with sodium bicarbonate 25 mM, read-out: E.coli + bicarb 25 (MIC)): < 8 µg/mL | MIC (P.aeruginosa (Pa); CAMHB supplemented with sodium bicarbonate 25 mM, read-out: Pa +bicarb 25 (MIC)): > 32 µg/mL | MIC (A.baumannii (Ab); CAMHB supplemented with sodium bicarbonate 25 mM, read-out: Ab +bicarb 25 (MIC)): > 32 µg/mL | MIC (E.faecalis (Ef); CAMHB supplemented with sodium bicarbonate 25 mM, read-out: Ef +bicarb 25 (MIC)): < 8 µg/mL | pIC50 [1]: > 6.30 | pIC50 [2]: ≤ 6.00

CC(C)(N)C(=O)N1CCN(C(=O)Nc2ccn(-c3ccc4c(c3)CCC(N3C[C@@H]5[C@@H](N)[C@@H]5C3)C4)c(=O)n2)CC1 (stereo partly shown) [Compound 1]
pIC50 [1]: ≤ 6.00 | pIC50 [2]: ≤ 6.00

CC(C)(N)C(=O)N1CCN(C(=O)Nc2ccn(-c3ccc4c(c3)CCC(N3CCC(N)CC3)C4)c(=O)n2)CC1 (stereo not shown) [Compound 2]
MIC (E.coli (Ec); [4]): < 8 µg/mL | pIC50 [1]: > 6.30 | pIC50 [2]: ≤ 6.00

Source: patent US20230278987A1, “Antimicrobial Compounds and Methods” (Curza Global, LLC, priority 2019, published 2023)
